Reference: US20260262643A1, “HERBICIDAL BENZOXAZINES” (FMC CORPORATION, priority 2022, published 2026)

What was measured:
barnyardgrass [1] = test: Test C preemergence; assay type: in vivo, Echinochloa crusgalli; conditions: preemergence, 0 to 100 scale (0 no effect, 100 complete control)
Outline: (§1)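 Visual injury score, 0–100 (100 = complete control), taken 10 days after treatment relative to untreated controls. Pre: directed spray onto soil over sown seeds. Post: foliar spray at one- to two-leaf stage, 2–10 cm. Solvent/surfactant formulation; loam–sand soil; greenhouse.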

blackgrass [2] = test: Test C preemergence; assay type: in vivo, Alopecurus myosuroides; conditions: preemergence, 0 to 100 scale (0 no effect, 100 complete control)
Outline: as §1

corn [3] = test: Test C preemergence; assay type: in vivo, Zea mays; conditions: preemergence, 0 to 100 scale (0 no effect, 100 complete control)
Outline: as §1

green foxtail [4] = test: Test C preemergence; assay type: in vivo, Setaria viridis; conditions: preemergence, 0 to 100 scale (0 no effect, 100 complete control)
Outline: as §1

kochia [5] = test: Test C preemergence; assay type: in vivo, Bassia scoparia; conditions: preemergence, 0 to 100 scale (0 no effect, 100 complete control)
Outline: as §1

oat, wild [6] = test: Test C preemergence; assay type: in vivo, Avena fatua; conditions: preemergence, 0 to 100 scale (0 no effect, 100 complete control)
Outline: as §1

pigweed, palmer [7] = test: Test C preemergence; assay type: in vivo, Amaranthus palmeri; conditions: preemergence, 0 to 100 scale (0 no effect, 100 complete control)
Outline: as §1

ragweed [8] = test: Test C preemergence; assay type: in vivo, Ambrosia artemisiifolia; conditions: preemergence, 0 to 100 scale (0 no effect, 100 complete control)
Outline: as §1

ryegrass, Italian [9] = test: Test C preemergence; assay type: in vivo, Lolium multiflorum; conditions: preemergence, 0 to 100 scale (0 no effect, 100 complete control)
Outline: as §1

soybean [10] = test: Test C preemergence; assay type: in vivo, Glycine max; conditions: preemergence, 0 to 100 scale (0 no effect, 100 complete control)
Outline: as §1

wheat [11] = test: Test C preemergence; assay type: in vivo, Triticum aestivum; conditions: preemergence, 0 to 100 scale (0 no effect, 100 complete control)
Outline: as §1

barnyardgrass [12] = test: Test C postemergence; assay type: in vivo, Echinochloa crusgalli; conditions: 10 days, 0 to 100 scale (0 no effect, 100 complete control)
Outline: as §1

blackgrass [13] = test: Test C postemergence; assay type: in vivo, Alopecurus myosuroides; conditions: 10 days, 0 to 100 scale (0 no effect, 100 complete control)
Outline: as §1

corn [14] = test: Test C postemergence; assay type: in vivo, Zea mays; conditions: 10 days, 0 to 100 scale (0 no effect, 100 complete control)
Outline: as §1

green foxtail [15] = test: Test C postemergence; assay type: in vivo, Setaria viridis; conditions: 10 days, 0 to 100 scale (0 no effect, 100 complete control)
Outline: as §1

kochia [16] = test: Test C postemergence; assay type: in vivo, Bassia scoparia; conditions: 10 days, 0 to 100 scale (0 no effect, 100 complete control)
Outline: as §1

oat, wild [17] = test: Test C postemergence; assay type: in vivo, Avena fatua; conditions: 10 days, 0 to 100 scale (0 no effect, 100 complete control)
Outline: as §1

pigweed, palmer [18] = test: Test C postemergence; assay type: in vivo, Amaranthus palmeri; conditions: 10 days, 0 to 100 scale (0 no effect, 100 complete control)
Outline: as §1

ragweed [19] = test: Test C postemergence; assay type: in vivo, Ambrosia artemisiifolia; conditions: 10 days, 0 to 100 scale (0 no effect, 100 complete control)
Outline: as §1

ryegrass, Italian [20] = test: Test C postemergence; assay type: in vivo, Lolium multiflorum; conditions: 10 days, 0 to 100 scale (0 no effect, 100 complete control)
Outline: as §1

soybean [21] = test: Test C postemergence; assay type: in vivo, Glycine max; conditions: 10 days, 0 to 100 scale (0 no effect, 100 complete control)
Outline: as §1

wheat [22] = test: Test C postemergence; assay type: in vivo, Triticum aestivum; conditions: 10 days, 0 to 100 scale (0 no effect, 100 complete control)
Outline: as §1

galium = test: Test C postemergence; assay type: in vivo, Galium aparine; conditions: 10 days, 0 to 100 scale (0 no effect, 100 complete control)
Outline: as §1

horseweed = test: Test C postemergence; assay type: in vivo, Erigeron canadensis; conditions: 10 days, 0 to 100 scale (0 no effect, 100 complete control)
Outline: as §1

barnyardgrass [23] = test: Test D flooded paddy test; assay type: in vivo, Echinochloa crus-galli; conditions: 250 g ai/ha, applied to paddy water, visual rating after 13 to 14 days, scale 0 to 100 (0 no effect, 100 complete control)
Outline: (§2)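 Post-flood water application at the 2-leaf stage; 3 cm flood depth kept constant; visual control rating 0–100 after 13–14 days greenhouse growth.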

ducksalad = test: Test D flooded paddy test; assay type: in vivo, Heteranthera limosa; conditions: 250 g ai/ha, applied to paddy water, visual rating after 13 to 14 days, scale 0 to 100 (0 no effect, 100 complete control)
Outline: as §2

rice = test: Test D flooded paddy test; assay type: in vivo, Oryza sativa; conditions: 250 g ai/ha, applied to paddy water, visual rating after 13 to 14 days, scale 0 to 100 (0 no effect, 100 complete control)
Outline: as §2

sedge, umbrella = test: Test D flooded paddy test; assay type: in vivo, Cyperus difformis; conditions: 250 g ai/ha, applied to paddy water, visual rating after 13 to 14 days, scale 0 to 100 (0 no effect, 100 complete control)
Outline: as §2

COC[C@H]1CN(C(=O)c2cc(-n3cnc(C(C)C)n3)ccc2OC)c2cccc(Cl)c2O1 [Compound 314]
Barnyardgrass plant response rating (barnyardgrass [1]; 500 g ai/ha): 100
Barnyardgrass plant response rating (barnyardgrass [1]; Test C, 125 g ai/ha): 70
Blackgrass plant response rating (blackgrass [2]; 500 g ai/ha): 70
Blackgrass plant response rating (blackgrass [2]; Test C, 125 g ai/ha): 20
Corn plant response rating (corn [3]; 500 g ai/ha): 0
Corn plant response rating (corn [3]; Test C, 125 g ai/ha): 0
Foxtail, Green plant response rating (green foxtail [4]; 500 g ai/ha): 100
Foxtail, Green plant response rating (green foxtail [4]; Test C, 125 g ai/ha): 100
Kochia plant response rating (kochia [5]; 500 g ai/ha): 100
Kochia plant response rating (kochia [5]; Test C, 125 g ai/ha): 90
Oat, Wild plant response rating (oat, wild [6]; 500 g ai/ha): 80
Oat, Wild plant response rating (oat, wild [6]; Test C, 125 g ai/ha): 60
Pigweed, Palmer plant response rating (pigweed, palmer [7]; 500 g ai/ha): 100
Pigweed, Palmer plant response rating (pigweed, palmer [7]; Test C, 125 g ai/ha): 100
Ragweed plant response rating (ragweed [8]; 500 g ai/ha): 70
Ragweed plant response rating (ragweed [8]; Test C, 125 g ai/ha): 50
Ryegrass, Italian plant response rating (ryegrass, Italian [9]; 500 g ai/ha): 100
Ryegrass, Italian plant response rating (ryegrass, Italian [9]; Test C, 125 g ai/ha): 100
Soybean plant response rating (soybean [10]; 500 g ai/ha): 90
Soybean plant response rating (soybean [10]; Test C, 125 g ai/ha): 40
Wheat plant response rating (wheat [11]; 500 g ai/ha): 40
Wheat plant response rating (wheat [11]; Test C, 125 g ai/ha): 20
Plant response rating, Barnyardgrass (barnyardgrass [12]; 500 g ai/ha, postemergence): 60
Plant response rating, Barnyardgrass (barnyardgrass [12]; Postemergence, 125 g ai/ha): 30
Plant response rating, Blackgrass (blackgrass [13]; 500 g ai/ha, postemergence): 100
Plant response rating, Blackgrass (blackgrass [13]; Postemergence, 125 g ai/ha): 80
Plant response rating, Corn (corn [14]; 500 g ai/ha, postemergence): 90
Plant response rating, Corn (corn [14]; Postemergence, 125 g ai/ha): 80
Plant response rating, Foxtail, Green (green foxtail [15]; 500 g ai/ha, postemergence): 90
Plant response rating, Foxtail, Green (green foxtail [15]; Postemergence, 125 g ai/ha): 60
Plant response rating, Kochia (kochia [16]; 500 g ai/ha, postemergence): 90
Plant response rating, Kochia (kochia [16]; Postemergence, 125 g ai/ha): 90
Plant response rating, Oat, Wild (oat, wild [17]; 500 g ai/ha, postemergence): 40
Plant response rating, Oat, Wild (oat, wild [17]; Postemergence, 125 g ai/ha): 40
Plant response rating, Pigweed, Palmer (pigweed, palmer [18]; 500 g ai/ha, postemergence): 90
Plant response rating, Pigweed, Palmer (pigweed, palmer [18]; Postemergence, 125 g ai/ha): 60
Plant response rating, Ragweed (ragweed [19]; 500 g ai/ha, postemergence): 90
Plant response rating, Ragweed (ragweed [19]; Postemergence, 125 g ai/ha): 80
Plant response rating, Ryegrass, Italian (ryegrass, Italian [20]; 500 g ai/ha, postemergence): 90
Plant response rating, Ryegrass, Italian (ryegrass, Italian [20]; Postemergence, 125 g ai/ha): 80
Plant response rating, Soybean (soybean [21]; 500 g ai/ha, postemergence): 100
Plant response rating, Soybean (soybean [21]; Postemergence, 125 g ai/ha): 100
Plant response rating, Wheat (wheat [22]; 500 g ai/ha, postemergence): 30
Plant response rating, Wheat (wheat [22]; Postemergence, 125 g ai/ha): 20
Plant response rating, Galium (galium; 500 g ai/ha, postemergence): 100
Plant response rating, Galium (galium; Postemergence, 125 g ai/ha): 100
Plant response rating, Horseweed (horseweed; 500 g ai/ha, postemergence): 90
Plant response rating, Horseweed (horseweed; Postemergence, 125 g ai/ha): 100
Plant response rating, Barnyardgrass (Flood) (barnyardgrass [23]): 15
Plant response rating, Ducksalad (Flood) (ducksalad): 85
Plant response rating, Rice (Flood) (rice): 15
Plant response rating, Sedge, Umbrella (Flood) (sedge, umbrella): 100
